Results on five compounds are retold here after paper PMC9234962, “Optimization of Peptide Linker-Based Fluorescent Ligands for the Histamine H1 Receptor” (Journal of Medicinal Chemistry, 2022).

Like-named read-outs stand apart in the source and are kept apart here. Square brackets hold non-standard residues; d marks the D form. Peptide text beside a SMILES is read from it. * marks the point of attachment. X1 = O=C(COc1ccc(/C=C/C2=[N+]3C(=Cc4ccc(-c5cccs5)n4[B-]3(F)F)C=C2)cc1)*; Propanoyl(3-Pip(4-O-2-BnPh)) = O=C(CCN1CCC(Oc2ccccc2Cc2ccccc2)CC1)*; βAla = NCCC(=O)O

Assay [1] deals with H1R. Conditions: cited from earlier work.
The target in assay [2] is T1, Nluc-H4R (Homo sapiens, UniProt Q9H3N8).
T1 construct: expressed in transfected cells; host or cells: HEK293T, transient transfection; sonicated cell homogenates
Set-up: method as in PMID 30249614. To be noted: literature value, cited from earlier work.

Assay [3] deals with T2, Nluc-H3R (Homo sapiens, UniProt Q9Y5N1).
T2 construct: expressed in transfected cells; host or cells: HEK293T, transient transfection; sonicated cell homogenates
Put plainly: NanoBRET saturation binding assay on Nluc-H3R HEK293T cell homogenates. Conditions: for binding at H3R in saturation assay (in words): concentrations of up to 1 μM; for Kd / Nluc-H3R pKD: cell homogenates, highest concentration 1 μM for 31a, 31k; for Nluc-H3R pKD: mean ± SEM, three experiments. The procedure: (§1) HEK293T cells were transiently transfected with 2.5 μg of cDNA encoding Nluc-H3R or Nluc-H4R and 2.5 μg of empty pcDEF3 vector using the polyethylenimine method as described previously in Mocking et al.[23] Two days after transfection, cells were collected in phosphate-buffered saline (PBS) and centrifuged at 1900g for 10 min and the cell pellet was stored at −20°C until the day of experiment. The pellet was resuspended in HBSS buffer, and cells were disrupted using a Branson sonifier 250 (Boom bv., Meppel, the Netherlands) prior to use in a NanoBRET binding assay.
For all NanoBRET binding experiments, 10 μM NanoGlo substrate (Promega) was added to each well after the incubation period and fluorescence and luminescence emissions were measured after 5 min.
(§2) Total and non-specific saturation binding curves from NanoBRET saturation binding assay were fitted simultaneously using eq 1: [drawing 4] 1 where Bmax is the maximal specific binding, [B] is the concentration of fluorescent ligand in nM, KD is the equilibrium dissociation constant in nM, M is the slope of the non-specific component, and C is the intercept with the Y axis.

Assay [4] addresses T1, Nluc-H4R. Description: NanoBRET saturation binding assay on Nluc-H4R HEK293T cell homogenates. Conditions: for Kd / Nluc-H4R pKD: cell homogenates, highest concentration 1 μM for 31a, 31k; for Nluc-H4R pKD: mean ± SEM, three experiments; for binding at H4R in saturation assay (in words): concentrations of up to 1 μM. The method, then: as §1
For cell membrane NanoBRET saturation binding experiments, cell homogenates expressing the Nluc-H3R or Nluc-H4R were incubated with the required concentrations of fluorescent ligand in the absence and presence of 10 μM clobenpropit in HBSS for 2 h at 25 °C. For all NanoBRET binding experiments, 10 μM NanoGlo substrate (Promega) was added to each well after the incubation period and fluorescence and luminescence emissions were measured after 5 min.
as §2

The target in assay [5] is T3, Nluc-H1R (Homo sapiens, UniProt P35367). Description: NanoBRET association kinetics assay on Nluc-H1R HEK293T cells. The format is binding. Set-up: expressed in transfected cells. Conditions: for Kd: kinetic pKD, read-out: pKD determined from kon and koff (converted); for Kd / kon / MRT (mean residence time, 1/koff) / koff: mean ± SEM; for residence time: read-out: mean residence times (MRT); for kon / MRT (mean residence time, 1/koff) / koff: real-time NanoBRET; for kon: room temperature, 90 min. The method, then:
For whole cell NanoBRET association kinetic experiments, 10 μM furimazine was added to each well and incubated at room temperature in the dark for 15 min to allow for stabilization of the luminescence signal. The required concentration of fluorescent ligand in the presence or absence of 10 μM of doxepin was added simultaneously, and the plates were read immediately with each well being read once per min for 90 min.
For the NanoBRET association kinetic experiments, the BRET ratio was determined for each concentration of fluorescent ligand at each time point in the presence or absence of 10 μM of doxepin. Specific binding was calculated by subtracting non-specific binding from total binding.

Assay [6] addresses T3, Nluc-H1R. Description: NanoBRET saturation binding assay on Nluc-H1R expressing HEK293T cells. To be noted: saturation binding curves, whole HEK293T cells; for pKD: non-specific with 10 μM mepyramine, mean ± SEM. Set-up: expressed in transfected cells.
Description: as §2

For assay [7], the target named is T4, human H1R (Homo sapiens, UniProt P35367).
T4 construct: expressed in transfected cells; host or cells: CHO cells
Put plainly: Ca2+ mobilization assay on human H1R-expressing CHO cells. The format is cell-based. Conditions: Gaddum equation, shift in histamine EC25 with 1 μM antagonist. The method, then: CHO cells expressing H1R were grown to confluence in black-walled, clear-bottom 96-well plates. On the day of the experiment, media were replaced with 100 μL of HBSS containing […], 2.3 μM Fluo-4AM (Invitrogen), 0.023% Pluronic F-127, 0.5 mM Brilliant Black BN, and 1 μM required fluorescent ligand and the plates incubated for 1 h at 37 °C in the dark. The plates were then placed in the multi-well fluorometric imaging plate reader FlexStation3 (Molecular Devices, Sunnyvale, CA) and HBSS only or HBSS containing the required concentration of histamine was added after 15 s. Fluo-4 fluorescence was measured at 520 nm (excitation at 485 nm) every 1.52 s for 200 s. For each well, the peak maximum–minimum–maximum change in fluorescence value was taken and plotted against concentration of histamine to give a dose–response curve.
Estimated affinity values (pKB) were calculated from the shift in agonist concentration–response curves in the presence of the fluorescent antagonists using the Gaddum equation (7): [drawing 10] 7 where DR (dose ratio) is the ratio of the agonist concentration required to stimulate an identical response in the presence and absence of antagonist, [B]. DR was determined from the EC25 value as there was a decrease in observed maximal efficacy of histamine in the presence of all 10 fluorescent antagonists.

Assay [8] concerns the target T5, YFP-tagged H1R (Homo sapiens, UniProt P35367).
T5 construct: expressed in transfected cells; host or cells: CHO cells
Description: confocal imaging of YFP-tagged H1R expressing CHO cells. The assay is classed as cell-based. Conditions: 1, 5, 10, 25 nM, 30 min, 37 °C, ± 10 μM mepyramine. The method, then: H1R-YFP expressing CHO cells were grown to approximately 80% confluency on an 8-well Labtek chambered coverglass (Nunc Nalgene). On the day of experiment, the cells were washed two times with 200 μL of HBSS and subsequently incubated in the presence or absence of 10 μM mepyramine for 30 min at 37 °C in humidified air with 0% CO2. The required concentration of 31a was added to the wells and incubated for another 30 min at 37 °C. Images were acquired using a Zeiss LSM710 confocal microscope (Carl Zeiss GmbH, Hena, Germany) fitted with a 63× plan-Apochromat NA1.3 Ph3 oil-immersion lens. For YFP, a 488 nm argon laser was used for excitation and emission was detected using a BP505-30 filter. For fluorescent ligand 31a, a 633 nm helium-neon laser was used for excitation and emission was detected using a 650 nm long pass filter. A pinhole of 1 Airy Unit was used, and fixed laser power, gain, and offset for the BODIPY 630/650 containing compounds were kept constant across all experiments.

[9] abbreviates: mean ± SEM, four experiments, read-out: pKB (converted).

T1 sequence (Q9H3N8 whole entry): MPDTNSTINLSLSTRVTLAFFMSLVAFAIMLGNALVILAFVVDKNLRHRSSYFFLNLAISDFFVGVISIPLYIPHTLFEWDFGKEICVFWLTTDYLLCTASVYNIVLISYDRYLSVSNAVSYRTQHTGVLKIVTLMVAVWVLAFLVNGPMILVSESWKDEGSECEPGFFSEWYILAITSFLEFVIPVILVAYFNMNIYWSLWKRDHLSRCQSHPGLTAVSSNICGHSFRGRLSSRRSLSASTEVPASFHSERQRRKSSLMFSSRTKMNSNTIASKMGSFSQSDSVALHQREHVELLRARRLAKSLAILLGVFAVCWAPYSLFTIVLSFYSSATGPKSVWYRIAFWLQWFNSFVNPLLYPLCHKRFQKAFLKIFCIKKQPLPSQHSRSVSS
T4 sequence (P35367 whole entry): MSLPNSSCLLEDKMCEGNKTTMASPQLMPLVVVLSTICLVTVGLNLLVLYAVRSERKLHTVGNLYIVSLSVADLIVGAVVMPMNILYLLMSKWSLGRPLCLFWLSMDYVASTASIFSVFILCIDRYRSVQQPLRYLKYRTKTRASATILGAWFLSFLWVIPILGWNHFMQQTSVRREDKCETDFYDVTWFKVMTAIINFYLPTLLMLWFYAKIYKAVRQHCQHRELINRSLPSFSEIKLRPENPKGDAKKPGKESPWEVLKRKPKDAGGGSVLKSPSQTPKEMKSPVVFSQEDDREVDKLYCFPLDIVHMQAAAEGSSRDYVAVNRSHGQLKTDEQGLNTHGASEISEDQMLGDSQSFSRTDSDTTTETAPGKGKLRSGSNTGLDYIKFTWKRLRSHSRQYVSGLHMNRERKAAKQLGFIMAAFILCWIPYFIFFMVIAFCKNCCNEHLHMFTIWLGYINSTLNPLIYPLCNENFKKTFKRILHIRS
T3 sequence (P35367 whole entry): as above
T2 sequence (Q9Y5N1 whole entry): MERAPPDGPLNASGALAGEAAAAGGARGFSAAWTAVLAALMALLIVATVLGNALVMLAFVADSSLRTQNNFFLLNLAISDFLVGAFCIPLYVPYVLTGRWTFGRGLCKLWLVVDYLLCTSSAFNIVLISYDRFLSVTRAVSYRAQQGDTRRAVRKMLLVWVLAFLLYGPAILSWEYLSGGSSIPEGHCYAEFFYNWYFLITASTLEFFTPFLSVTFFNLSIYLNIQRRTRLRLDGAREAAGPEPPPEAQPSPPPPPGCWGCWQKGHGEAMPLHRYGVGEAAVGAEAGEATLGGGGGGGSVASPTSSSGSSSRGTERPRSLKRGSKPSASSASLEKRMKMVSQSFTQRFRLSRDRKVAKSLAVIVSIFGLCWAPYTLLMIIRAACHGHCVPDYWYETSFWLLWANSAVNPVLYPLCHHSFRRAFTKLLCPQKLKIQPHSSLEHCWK
T5 sequence (P35367 whole entry): as the sequence (P35367 whole entry) above

For `c1ccc(Cc2ccccc2OC2CCNCC2)cc1` [VUF13816, 4-(2-Benzylphenoxy)piperidine], in assay [1] (H1R), the “radioligand binding assay pKi” value is 8.20.
In the case of `C[C@@H](NC(=O)CCN1CCC(Oc2ccccc2Cc2ccccc2)CC1)C(=O)N[C@H](C)C(=O)N[C@H](C)C(=O)NCCNC(=O)CCCCCNC(=O)COc1ccc(/C=C/C2=[N+]3C(=Cc4ccc(-c5cccs5)n4[B-]3(F)F)C=C2)cc1` [Compound 1], the “Radioligand binding assay (hH1R) pKi” value in assay [1] is recorded as 8.4 ± 0.1.
As for `NC(=NCc1ccc(Cl)cc1)SCCCc1cnc[nH]1` [CA200843, reference compound], in assay [2], the “pKD at Nluc-H4R reported in literature” value is given as 7.15. In addition, in assay [2] (read-out: binding affinity at Nluc-H4R reported in literature), the Kd is 70 nM. Also, the “binding at H3R in saturation assay (in words)” value (“binding at H3R” for short) in assay [3] was “concentration-dependent, saturable and reversible binding”. Further, in assay [4], the Kd is 31 nM; the “Nluc-H4R pKD” value amounted to 7.51 ± 0.04; the “binding at H4R in saturation assay (in words)” value (“binding at H4R” for short) was “concentration-dependent, saturable and reversible binding”.
As to `C[C@H](NC(=O)[C@H](C)NC(=O)[C@H](Cc1ccccc1)NC(=O)CCN1CCC(Oc2ccccc2Cc2ccccc2)CC1)C(=O)NCCC(=O)N[C@@H](CCCCNC(=O)COc1ccc(/C=C/C2=[N+]3C(=Cc4ccc(-c5cccs5)n4[B-]3(F)F)C=C2)cc1)C(N)=O` [Compound 31k, (S)-2-((6S,9S,12S)-12-Benzyl-16-(4-(2-benzylphenoxy)piperidin-1-yl)-6,9-dimethyl-5,8,11,14-tetraoxo-4,7,10,13-tetraazahexadecanamido)-6-(2-(4-((E)-2-(5,5-difluoro-7-(thiophen-2-yl)-5H-5λ^4,6λ^4-dipyrr-olo[1,2-c:2’,1’-f][1,3,2]diazaborinin-3-yl)vinyl)phenoxy)acetamido)hexanamide] ({Propanoyl(3-Pip(4-O-2-BnPh))}-FAA[βAla]K(X1)-NH2), in assay [5], the Kd is 22.9 nM; the residence time was greater than 60 min; the kon was 11400 M⁻¹ s⁻¹; the “MRT (mean residence time, 1/koff)” value was 1.31 ± 0.24 h. In assay [5], this compound gave a koff of 0.000233 s⁻¹. In assay [6], this compound came in with a Kd of 12 nM and a negative-log KD (pKD) of 7.92 ± 0.08. For the same compound, the Kb in assay [7] (setting [9]) is 2.57 nM. For the same compound, the Kb in assay [7] (read-out: KB (converted)) is 3 nM. In assay [3], the Kd was less than 1000 nM, the “Nluc-H3R pKD” value was less than 6 and the “binding at H3R” value is listed as “little to no binding”. Further, in assay [3] (from NanoBRET saturation binding at H1R, H3R, H4R), the “selectivity for H1R over H3R and H4R” value is “approximately 100 fold”. Besides, in assay [4], the Kd is less than 1000 nM, the “Nluc-H4R pKD” value is less than 6 and the “binding at H4R” value is listed as “little to no binding”.
In the case of `CC(C)[C@H](NC(=O)CCN1CCC(Oc2ccccc2Cc2ccccc2)CC1)C(=O)N[C@@H](CO)C(=O)N[C@@H](CC(N)=O)C(=O)NCCC(=O)N[C@@H](CCCCNC(=O)COc1ccc(/C=C/C2=[N+]3C(=Cc4ccc(-c5cccs5)n4[B-]3(F)F)C=C2)cc1)C(N)=O` [Compound 31a, (S)-N1-(3-(((S)-1-Amino-6-(2-(4-((E)-2-(5,5-difluoro-7-(thiophen-2-yl)-5H-5λ^4,6λ^4-dipyrrolo[1,2-c:2’,1’-f][1,3,2]diazaborinin-3-yl)vinyl)phenoxy)acetamido)-1-oxohexan-2-yl)amino)-3-oxopropyl)-2-((S)-2-((S)-2-(3-(4-(2-benzylphenoxy)piperidin-1-yl)propanamido)-3-methylbutanamido)-3-hydroxypropanamido)succinamide] ({Propanoyl(3-Pip(4-O-2-BnPh))}-VSN[βAla]K(X1)-NH2), in assay [5], the Kd is 17.8 nM; the residence time is greater than 60 min; the kon was 14000 M⁻¹ s⁻¹; the “MRT (mean residence time, 1/koff)” value came to 1.26 ± 0.17 h. In assay [5], this compound had a koff of 0.000233 s⁻¹. Besides, the “localization in confocal imaging” value in assay [8] is on record as “localized to the plasma membrane of the cells with almost no intracellular uptake”. In assay [6], this compound had a Kd of 4 nM and a pKD of 8.40 ± 0.08. Besides, the Kb in assay [7] (setting [9]) is 2.75 nM. For the same compound, the Kb in assay [7] (read-out: KB (converted)) was 3 nM. Moreover, in assay [3], the Kd is less than 1000 nM, the “Nluc-H3R pKD” value is listed as less than 6 and the “binding at H3R” value is reported as “little to no binding”. In assay [4], the Kd was less than 1000 nM, the “Nluc-H4R pKD” value is less than 6 and the “binding at H4R” value was “little to no binding”.
